Test results reported in patent publication US20150105349A1, “(R)-(-)-1,2-propanediol compositions and methods” (priority 2013, published 2015).
Where two headings read alike, the source gives them in different places. One block for each molecule: values may come before it.

Columns and labels:
[1] = test system: philtrum skin; assay: philtrum skin cooling bioassay (subjective coolness rating 0-3); assay type: in vivo, human; details: for Ratio of AUC 75/25% R/S to 25/75% R/S (fold increase in cooling activity): 49% distilled water, 1% ethanol
Description: The term “alcoholic solvent” refers to a chemical with one to four carbons with at least one hydroxyl group attached to a carbon atom. A reliable place for topical application is the skin above the upper lip (above the vermilion border of the lips), on the philtrum, lateral to the philtrum until the nasolabial folds, and on the lower nostrils (subnasale). This part of the face is known to be densely innervated with cold receptors, second only to the surfaces of the eyeball and anogenitalia. Tingling, cool and cold sensations from the skin may be experienced and rated for time of onset and intensity.
The intervals for recording sensations are 5 to 10 minutes, until two successive zeros are obtained. The results (shown in the Figures) are averaged values of 4 to 6 separate trials in the same individual. The data are plotted using SigmaPlot (Systat Software, Point Richmond, Calif.) and a smoothing function with a negative exponential was used for analysis and statistical fit of the results. The onset of drug action is taken as the time to reach 2 units of coolness intensity, and offset of drug action is the time when coolness intensity drops below 2, after previously surpassing 2 units. […] The duration of cooling action is defined as the offset time minus the onset time and the primary index of effect. As described in Examples, the test compounds were tested at 2 to 10 mg/mL of vehicle.
For assays on the skin, the cooling agent(s) was dissolved in the alcoholic solvent to yield a 2, 2.5, 3, 5 or 10 mg/mL solution. Using a cotton-tipped applicator (e.g. Q-tips®) 0.10 to 0.25 mL of the test solution was applied to the skin above the upper lip, on the philtrum, and lateral to the philtrum up to the nasolabial folds, and the onset and duration of cooling sensations noted. […] The interval for recording sensations was at 5 to 10 minute intervals, until at least two successive zeros were obtained. The results were averaged values of 3 to 6 separate trials in the same individual. The “onset” is the time taken to reach a coolness intensity value of 2. […] The “off-set” is when the coolness intensity drops below 2, and the duration is the time of off-set minus the time of onset. The area under the curve (AUC) gives an estimate of the intensity and duration of drug action and can be obtained from the plotted data using SigmaPlot (Systat Software, Point Richmond, Calif.). The AUC unit is the product of cooling intensity x min.

[2] = test system: philtrum skin; assay: as above; assay type: in vivo, human
[3] = biological target: TRPM8 receptor (Homo sapiens, UniProt Q7Z2W7); details: cited from earlier work
[4] = biological target: T1, cloned hTRPM8 channel (human TRPM8 gene, expressed in CHO cells) (Homo sapiens, UniProt Q7Z2W7); assay: agonist activity on cloned hTRPM8 channel, Fluo-8 calcium kit, FLIPR; assay type: cell-based
T1 construct: host or cells: CHO cells
Protocol: The in vitro effects of test articles were evaluated on cloned hTRPM8 channel (encoded by the human TRPM8 gene, expressed in CHO cells) using a Fluo-8 calcium kit and a Fluorescence Imaging Plate Reader (FLIPR^TETRA™) instrument. […] The total number of carbons in these trialkylphosphine oxides ranged from 12 to 15.
To further examine solvent-receptor interactions, stock solutions of 1-7 [1-(Diisopropyl-phosphinoyl)-heptane] were prepared in dimethyl sulfoxide (DMSO) or DMSO containing 10% or 30% by volume of the three isomers of 1,2-propanediol, (R/S-PD, R-PD, and S-PD) and stored frozen. Six dose levels were tested ranging from 0.003 to 3 μM. Ten μl of the test article solution were added to 40 μl of cells in HBPS in glass-lined 384-well compound plates, and placed into the FLIPR instrument for the fluorescence readout (Molecular Devices Corporation, Union City, Calif.).

[5] = test system: humans; details: based on intravenous infusion studies; cited from earlier work
[6] = test system: rodents; details: oral; cited from earlier work
[7] = test system: itch (contact dermatitis) on the scalp; assay: topical application to scalp itch (contact dermatitis after hair dye), one individual; assay type: in vivo, human; details: 5 mg/mL in 1% ethanol-99% (R)-1,2-propanediol, Yorker spout bottle
Protocol: An individual developed intense itch (contact dermatitis) on the scalp at the base of the skull after use of hair dye. A cotton-tipped stick was used to apply CPS-410 or CPS-412, 5 mg/mL dissolved in a 1% ethanol-99% (R)-1,2-propanediol, to the site of itch. The itch sensations were suppressed within 5 min after application of either solution and this effect lasted for at least 8 hr. In a second experiment, the solutions were applied using a plastic bottle with a conical Yorker spout. This allowed more precise droplet delivery of the solution to the site of itch. […] The advantage of liquid formulation is the ease of uniform delivery to the inflamed site, a method not achievable with cream or ointment. Itch symptoms of hair and fur occur in seborrheic dermatitis, psoriasis, insect bites, canine pruritus, and allergic dermatitis. Liquid formulations containing (R)-1,2-propanediol and a cooling agent may be therapeutically valuable in these conditions.

[8] = test system: axillary skin lesion of plaque psoriasis (itch, burning); assay: topical application to axillary plaque psoriasis lesion, one subject; assay type: in vivo, human; details: 2% in 1% ethanol-99% (R)-1,2-propanediol, swab stick, first application at night
Description: A person with an 8-year history of plaque psoriasis complained of an axillary skin lesion that itched, had burning sensations, and kept them awake at night. Their condition was severe and chronic. Their parent complained that they had to vacuum their bedroom every day in order to remove flaking skin debris. […] They volunteered to try CPS-148, 2% dissolved in 1% ethanol-99% (R)-1,2-propanediol, and was given instructions on how to apply the solution to their site of itch with a swab stick (Q-tip™). They claimed after the first time of application at night the burning sensations and itch disappeared within 5 to 10 min and they were able to have a good nights sleep. They continued to use the solution on an “as-needed basis” for one month and claimed that they slept much better than before.

[9] = test system: periorbital skin and skin above the cheekbone; assay: cosmetic wipe over periorbital skin and skin above the cheekbone, six female subjects; assay type: in vivo, human; details: 10 mg/mL in water (50%), 10% (S)-, 40% (R)-1,2-propanediol
Protocol: Six female subjects working at a cosmetics company volunteered to try topical applications of 1-7 and/or 1-8, formulated at 10 mg/mL in water (50%) and 10% (S)-1,2-propanediol, 40% (R)-1,2-propanediol wt/wt. The liquid was put on a cotton square and wiped over the periorbital skin and the skin above the cheekbone. All the subjects remarked on a refreshing coolness on the skin at the sites of application within 2 min after application. There was a “wow” effect, that was considered pleasant and stimulating. […] Four of the six subjects said they felt more “awake and energetic.”

[10] = test system: dorsal surface of the tongue; details: 6 subjects; 100-fold variation in individual sensitivity; cited from earlier work
[11] = TRPM8 receptor assay, read-out: EC50 μM (95% C, L.)
[12] = 10 mg/mL in (R)-1,2-propanediol

T1 sequence (Q7Z2W7 whole entry): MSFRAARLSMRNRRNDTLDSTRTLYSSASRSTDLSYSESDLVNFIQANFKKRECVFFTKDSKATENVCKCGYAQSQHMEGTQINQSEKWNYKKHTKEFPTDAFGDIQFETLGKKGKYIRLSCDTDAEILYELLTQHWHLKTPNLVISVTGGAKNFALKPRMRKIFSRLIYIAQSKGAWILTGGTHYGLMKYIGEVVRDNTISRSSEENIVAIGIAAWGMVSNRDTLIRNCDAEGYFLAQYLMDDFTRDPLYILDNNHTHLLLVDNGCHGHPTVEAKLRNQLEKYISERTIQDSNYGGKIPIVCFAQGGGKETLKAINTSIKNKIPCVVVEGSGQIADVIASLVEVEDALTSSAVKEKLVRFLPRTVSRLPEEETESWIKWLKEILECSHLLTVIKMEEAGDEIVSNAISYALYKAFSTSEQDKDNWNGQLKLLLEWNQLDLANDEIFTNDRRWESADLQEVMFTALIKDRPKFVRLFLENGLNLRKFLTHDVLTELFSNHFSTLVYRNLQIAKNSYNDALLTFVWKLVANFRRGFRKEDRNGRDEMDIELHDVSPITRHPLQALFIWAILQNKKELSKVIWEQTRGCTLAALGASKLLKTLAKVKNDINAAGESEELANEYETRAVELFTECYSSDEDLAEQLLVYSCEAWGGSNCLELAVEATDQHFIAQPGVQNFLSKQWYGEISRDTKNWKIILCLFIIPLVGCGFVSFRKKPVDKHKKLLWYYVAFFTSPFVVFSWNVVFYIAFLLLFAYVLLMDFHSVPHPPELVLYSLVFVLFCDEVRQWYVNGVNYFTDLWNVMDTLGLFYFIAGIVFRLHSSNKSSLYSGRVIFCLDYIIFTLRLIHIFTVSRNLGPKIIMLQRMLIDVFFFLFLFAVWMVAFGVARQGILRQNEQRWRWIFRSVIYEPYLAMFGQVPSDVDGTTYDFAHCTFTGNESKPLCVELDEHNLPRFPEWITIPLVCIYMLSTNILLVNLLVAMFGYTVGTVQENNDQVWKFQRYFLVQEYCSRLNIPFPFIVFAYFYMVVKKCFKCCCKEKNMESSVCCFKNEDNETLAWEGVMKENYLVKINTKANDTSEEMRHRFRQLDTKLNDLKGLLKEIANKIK
Sequence of TRPM8 receptor (Q7Z2W7 whole entry): as above

Molecule: (R)-(−)-1,2-propanediol [(R)-1,2-propanediol]
effect on ethanol inhibition of WS-5 cooling ([1]; added at 10%, 20% and 40% vol/vol to ethanolic solution of WS-5 10 mg/mL): reversed the ethanol inhibition in a dose-dependent relationship

Molecule: CCNC(=O)C1CC(C)CCC1C(C)C (stereo not drawn) [WS-3, 2-Isopropyl-5-methyl-cyclohexanecarboxylic acid ethylamide]
duration of robust cooling ([2]; 20 mg/mL in 97% (R)-1,2-propanediol-3% ethanol, with prickling and stinging sensations): 38 ± 3 min
cooling effect ([2]; 20 mg/mL in absolute ethanol): did not produce significant cooling

Molecule: CCO [ethanol]
inhibition of TRPM8 receptor response to (−)-menthol ([3]; 0.5% ethanol in the medium): 50%
TRPM8 receptor response to (−)-menthol ([3]; 3% concentration of ethanol): almost totally lost

Molecule: CCCCCCCCCP(=O)(C(C)C)C(C)C [1-9]
Potency Relative to I-menthol ([4]; TRPM8 receptor assay): 4.0
EC50 [4, 11]: 0.9 µM

Molecule: CC(O)CO (racemic) [racemic 1,2-propanediol]
estimated safe dose [5]: 1 g per kg body weight per day
median lethal dose [6]: about 25 mL/kg of body weight

Molecule: CCCCCP(=O)(C(C)CC)C(C)CC (stereo not drawn) [2-5]
Potency Relative to I-menthol ([4]; TRPM8 receptor assay): 2.2
EC50 [4, 11]: 1.7 µM
Ratio of AUC 75/25% R/S to 25/75% R/S (fold increase in cooling activity) [1]: 1.4

Molecule: CCCCCP(=O)(C(C)C)C(C)C [1-5]
Potency Relative to I-menthol ([4]; TRPM8 receptor assay): 0.7
EC50 [4, 11]: 5.6 µM
Ratio of AUC 75/25% R/S to 25/75% R/S (fold increase in cooling activity) [1]: 1.5

Molecule: CCCOC(=O)[C@@H](C)NC(=O)[C@@H]1C[C@H](C)CC[C@H]1C(C)C [CPS-410, (R)-2-[((1R,2S,5R)-2-isopropyl-5-methyl-cyclohexanecarbonyl)-amino]-propionic acid n-propyl ester]
sensations of coolness after application to scalp [7]: produced sensations of coolness

Molecule: CCCCOC(=O)[C@@H](C)NC(=O)[C@@H]1C[C@H](C)CC[C@H]1C(C)C [CPS-412, (R)-2-[((1R,2S,5R)-2-isopropyl-5-methyl-cyclohexanecarbonyl)-amino]-propionic acid n-butyl ester]
sensations of coolness after application to scalp [7]: less noticeable

Molecule: CCCCCCCP(=O)(C(C)C)C(C)C [1-7, 1-(Diisopropyl-phosphinoyl)-heptane]
ratio of the EC50 for the R versus S enantiomers of 1,2-propanediol ([4]; C.L. overlap): about 2
EC50 ([4]; HBPS, 30% volume series, read-out: EC50 (95% C.L.)): 1.6 µM
Potency Relative to I-menthol ([4]; TRPM8 receptor assay): 5.4
EC50 [4, 11]: 0.7 µM
EC50 ([4]; stock in DMSO containing 30% by volume R-PD, read-out: EC50 (95% C.L.)): 2.2 µM
EC50 ([4]; stock in DMSO containing 30% by volume R/S-PD, read-out: EC50 (95% C.L.)): 2.9 µM
EC50 ([4]; stock in DMSO containing 30% by volume S-PD, read-out: EC50 (95% C.L.)): 4.4 µM
Ratio of AUC 75/25% R/S to 25/75% R/S (fold increase in cooling activity) [1]: 1.6
irritation or redness on the skin after applications [9]: no irritation or redness
time facial skin felt cool and dry after application ([9]; all subjects): at least one hour

Molecule: CC(C)[C@@H]1CC[C@@H](C)C[C@H]1O (single isomer, unassigned) [(−)-menthol, reference compound]
average threshold for cooling on tongue (Threshold, μg) [10]: 0.25 µg
cooling duration ([1]; 10 mg/mL in 1,3-propanediol): 13 ± 1 min
cooling duration [1, 12]: 21 ± 2 min

Molecule: CCCCP(=O)(C(C)CC)C(C)CC (stereo not drawn) [2-4]
Potency Relative to I-menthol ([4]; TRPM8 receptor assay): 0.3
EC50 [4, 11]: 14.5 µM
Ratio of AUC 75/25% R/S to 25/75% R/S (fold increase in cooling activity) [1]: 1.9

Molecule: CCCCCCP(=O)(C(C)C)C(C)C [1-6]
Potency Relative to I-menthol ([4]; TRPM8 receptor assay): 1.6
EC50 [4, 11]: 2.4 µM
Ratio of AUC 75/25% R/S to 25/75% R/S (fold increase in cooling activity) [1]: 1.7

Molecule: CCOC(=O)[C@@H](C)NC(=O)[C@@H]1C[C@H](C)CC[C@H]1C(C)C [CPS-369, (R)-2-[((1R,2S,5R)-2-isopropyl-5-methyl-cyclohexanecarbonyl)-amino]-propionic acid ethyl ester]
Cooling Activity % (relative to (R)-1,2-propanediol) ([1]; 10 mg/mL in 1,3-propanediol, inactive = did not exceed 2 units of coolness): inactive
Cooling Activity % (relative to (R)-1,2-propanediol) [1, 12]: 100%
Cooling Activity % (relative to (R)-1,2-propanediol) ([1]; 10 mg/mL in (S)-1,2-propanediol, based on AUC): 47%
Cooling Activity % (relative to (R)-1,2-propanediol) ([1]; 10 mg/mL in ethanol, inactive = did not exceed 2 units of coolness): inactive
Cooling Activity % (relative to (R)-1,2-propanediol) ([1]; 10 mg/mL in isopropanol, inactive = did not exceed 2 units of coolness): inactive
Cooling Activity % (relative to (R)-1,2-propanediol) ([1]; 10 mg/mL in n-propanol, inactive = did not exceed 2 units of coolness): inactive
Cooling Activity % (relative to (R)-1,2-propanediol) ([1]; 10 mg/mL in racemic 1,3-butanediol): 10%

Molecule: CCOC(=O)CNC(=O)[C@@H]1C[C@H](C)CC[C@H]1C(C)C [WS-5, [((1R,2S,5R)-2-isopropyl-5-methyl-cyclohexanecarbonyl)-amino]-acetic acid ethyl ester, reference compound]
cooling effect ([1]; 10 mg/mL in 100% ethanol): did not produce any cooling effect

Molecule: CCCCCCCCP(=O)(C(C)CC)C(C)CC (stereo not drawn) [2-8]
Potency Relative to I-menthol ([4]; TRPM8 receptor assay): 2.9
EC50 [4, 11]: 1.3 µM

Second part, led by results:

Potency Relative to I-menthol ([4]; TRPM8 receptor assay): 4.7
EC50 [4, 11]: 0.8 µM
Molecule: CCCCCCP(=O)(C(C)CC)C(C)CC (stereo not drawn) [CPS-147, 1-(Di-sec-butyl-phosphinoyl)-hexane]
Ratio of AUC 75/25% R/S to 25/75% R/S (fold increase in cooling activity) [1]: 1.6

agonism at the TRPM8 ion channel [4]: activates TRPM8
Potency Relative to I-menthol ([4]; TRPM8 receptor assay): 3.4
EC50 [4, 11]: 1.1 µM
Molecule: CCCCCCCP(=O)(C(C)CC)C(C)CC (stereo not drawn) [CPS-148, 1-(Di-sec-butyl-phosphinoyl)-heptane]
time to disappearance of burning sensations and itch [8]: 5 to 10 min
Ratio of AUC 75/25% R/S to 25/75% R/S (fold increase in cooling activity) [1]: 2.3
